Molecular target: Neurotensin receptor type 1 (Homo sapiens, UniProt P30989)
Experiment: NTR1 Ca2+ Flux Dose Response: NTSR1 (NTR1) CHO cells are plated in 20 uL of assay media containing Ham's F12 supplemented with 10% fetal bovine serum and 0.4 mg/mL G418 at a concentration of 1.0×10^6 cells per mL into black, 384-well assay plates with clear bottoms using a Multidrop liquid handler. Assay plates are incubated at 37° C. in 5% CO2. The next day, the assay plates are aspirated to remove growth media and washed once with 20 uL of DPBS. The DPBS is then aspirated from the assay plate and replaced with 25 uL of Fluo-4 NW calcium dye prepared according to the manufacturer's recommendations then the plates are incubated for 1 hour at 37° C. Following the incubation in the presence of dye, the assay is run on a Molecular Devices FlexStation-III using 494 excitation and 516 emission wavelengths set to read for 90 seconds with the addition at 18 seconds of 5 uL of 6× final concentration of test compounds and peptide control diluted in assay media containing 0.1% BSA and no more than 9% DMSO to yield a maximum final DMSO concentration of 1.5%. […] EC50 values were calculated for those compounds tested in 8-point dose dependent response.

Sequence of Neurotensin receptor type 1 (P30989 whole entry): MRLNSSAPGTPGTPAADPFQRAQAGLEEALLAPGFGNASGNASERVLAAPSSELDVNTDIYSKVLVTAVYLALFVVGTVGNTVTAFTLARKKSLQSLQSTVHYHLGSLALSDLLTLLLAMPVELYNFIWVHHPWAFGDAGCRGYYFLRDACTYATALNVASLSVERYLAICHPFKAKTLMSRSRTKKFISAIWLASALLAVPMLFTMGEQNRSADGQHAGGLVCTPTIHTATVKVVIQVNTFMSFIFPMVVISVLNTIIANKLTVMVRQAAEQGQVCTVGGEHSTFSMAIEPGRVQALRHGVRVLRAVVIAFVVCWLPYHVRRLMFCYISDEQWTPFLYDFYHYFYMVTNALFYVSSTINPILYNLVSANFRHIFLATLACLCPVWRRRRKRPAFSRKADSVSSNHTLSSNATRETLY

EC50 [µM]	SMILES
> 10	COc1cccc2c1CCN(c1nc(C3CC3)nc3ccc(N(C)CCO)cc13)C2
< 0.5	COc1ccccc1C1CCN(c2nc(C3CC3)nc3cc(F)c(N(C)CCO)cc23)CC1
> 10	COc1ccccc1C1CCN(c2nc(C3CC3)nc(C)c2CC(=O)N(C)CCO)CC1
> 10	COc1ccccc1C1CCN(c2nc(C3CC3)nc3c(N(C)CCO)cccc23)CC1

Reference: ChEMBL document CHEMBL5725860 (2018)
